From patent US7138361B2, “Herbicidal heterocycles” (E. I. du Pont de Nemours and Company, priority 2000, dated 2006)

Key:
Assay type in all cases: in vivo
[1] = test system: barnyardgrass (Echinochloa crus-galli); test: Test C flooded paddy test; conditions: for Barnyardgrass plant response rating: Flooded Paddy, scale 0 to 100, 0 no effect, 100 complete control; for Plant response rating, Barnyardgrass: flooded paddy test, scale 0 to 100 (0 no effect, 100 complete control)
Procedure, shortened: (§1)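 Visual ratings (0 = no effect, 100 = complete control) were made 12–14 days after treatment, relative to greenhouse controls. Plants in the flooded paddy test were rice, smallflower flatsedge, duck salad and barnyardgrass, treated at the 2-leaf stage.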

[2] = test system: smallflower flatsedge (Cyperus difformis); test: Test C flooded paddy test; conditions: for Flatsedge plant response rating: Flooded Paddy, scale 0 to 100, 0 no effect, 100 complete control; for Plant response rating, Flatsedge: flooded paddy test, scale 0 to 100 (0 no effect, 100 complete control)
Procedure, shortened: as §1

[3] = test system: duck salad (Heteranthera limosa); test: Test C flooded paddy test; conditions: for Ducksalad plant response rating: Flooded Paddy, scale 0 to 100, 0 no effect, 100 complete control; for Plant response rating, Ducksalad: flooded paddy test, scale 0 to 100 (0 no effect, 100 complete control)
Procedure, shortened: as §1

[4] = test system: Sunflower; test: Test C preemergence; conditions: Rate 500 g/ha, visual evaluation after 12 to 14 days
[5] = test system: Nightshade; test: Test C preemergence
[6] = test system: morningglory (Ipomoea hederacea); test: Test C preemergence
Procedure, shortened: (§2)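 Pre- and postemergence treatments used a non-phytotoxic solvent/surfactant formulation; post-treated plants measured 2 to 18 cm. Greenhouse hold 12–14 d; % control estimated visually relative to controls.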

[7] = test system: velvetleaf (Abutilon theophrasti); test: Test C preemergence
Procedure, shortened: as §2

[8] = test system: Surinam grass (Brachiaria decumbens); test: Test C preemergence
Procedure, shortened: as §2

[9] = test system: kochia (Kochia scoparia); test: Test C preemergence
Procedure, shortened: as §2

[10] = test system: woolly cupgrass (Eriochloa villosa); test: Test C preemergence
Procedure, shortened: as §2

[11] = test system: giant foxtail (Setaria faberii); test: Test C preemergence
Procedure, shortened: as §2

[12] = test system: crabgrass (Digitaria sanguinalis); test: Test C preemergence
Procedure, shortened: as §2

[13] = test system: johnsongrass (Sorghum halepense); test: Test C preemergence
Procedure, shortened: as §2

[14] = test system: goosegrass (Eleusine indica); test: Test C preemergence
Procedure, shortened: as §2

[15] = test system: cocklebur (Xanthium strumarium); test: Test C preemergence
Procedure, shortened: as §2

[16] = test system: pigweed (Amaranthus retroflexus); test: Test C preemergence
Procedure, shortened: as §2

[17] = test system: yellow nutsedge (Cyperus esculentus); test: Test C preemergence
Procedure, shortened: as §2

[18] = test system: bermudagrass (Cynodon dactylon); test: Test C preemergence
Procedure, shortened: as §2

[19] = test system: lambsquarters (Chenopodium album); test: Test C preemergence
Procedure, shortened: as §2

[20] = test system: Sunflower; test: Test C preemergence; conditions: Rate 125 g/ha; scale 0 to 100, 0 no effect, 100 complete control
[21] = test system: corn (Zea mays); test: Test C preemergence
Procedure, shortened: as §2

[22] = test system: soybean (Glycine max); test: Test C preemergence
Procedure, shortened: as §2

[23] = Rate 125 g/ha, scale 0 to 100, 0 no effect, 100 complete control
[24] = preemergence, Rate 62 g/ha, scale 0 to 100
[25] = preemergence, Rate 500 g/ha, visual evaluation after 12 to 14 days
[26] = preemergence, Rate 250 g/ha, scale 0 to 100, 0 no effect, 100 complete control

## CCCC(C)c1ccn(C2CCN(c3cccc(OC)c3)C2=O)n1 (stereo not drawn) [Compound 99]
[1]; Rate 250 g/ha
  Barnyardgrass plant response rating: 20
[1]; Rate 500 g/ha
  Barnyardgrass plant response rating: 60
[1]; Rate 62 g/ha
  Plant response rating, Barnyardgrass: 0
[1]; Rate 125 g/ha
  Plant response rating, Barnyardgrass: 0
[2]; Rate 250 g/ha
  Flatsedge plant response rating: 100
[2]; Rate 500 g/ha
  Flatsedge plant response rating: 100
[2]; Rate 62 g/ha
  Plant response rating, Flatsedge: 0
[2]; Rate 125 g/ha
  Plant response rating, Flatsedge: 90
[3]; Rate 250 g/ha
  Ducksalad plant response rating: 0
[3]; Rate 500 g/ha
  Ducksalad plant response rating: 0
[3]; Rate 62 g/ha
  Plant response rating, Ducksalad: 0
[3]; Rate 125 g/ha
  Plant response rating, Ducksalad: 0
[4]
  Plant response rating (0 to 100), Sunflower: 0
[5]; Rate 62 g/ha, scale 0 to 100
  Plant response rating, Nightshade: 0
[5]; [23]
  Plant response rating, Nightshade: 0
[5]; Rate 250 g/ha, scale 0 to 100, 0 no effect, 100 complete control
  Plant response rating, Nightshade: 0
[6]; [23]
  Plant response rating, Morningglory: 20
[6]; [24]
  Plant response rating, Morningglory: 0
[6]; [25]
  Plant response rating (0 to 100), Morningglory: 20
[6]; [26]
  Plant response rating, Morningglory: 20
[7]; [23]
  Plant response rating, Velvetleaf: 0
[7]; [24]
  Plant response rating, Velvetleaf: 0
[7]; [25]
  Plant response rating (0 to 100), Velvetleaf: 0
[7]; [26]
  Plant response rating, Velvetleaf: 0
[8]; [23]
  Plant response rating, Surinam grass: 0
[8]; [24]
  Plant response rating, Surinam grass: 0
[8]; [25]
  Plant response rating (0 to 100), Surinam grass: 90
[8]; [26]
  Plant response rating, Surinam grass: 0
[9]; [23]
  Plant response rating, Kochia: 90
[9]; [24]
  Plant response rating, Kochia: 80
[9]; [25]
  Plant response rating (0 to 100), Kochia: 100
[9]; [26]
  Plant response rating, Kochia: 90
[10]; [23]
  Plant response rating, Cupgrass, Woolly: 0
[10]; [24]
  Plant response rating, Cupgrass, Woolly: 0
[10]; [25]
  Plant response rating (0 to 100), Cupgrass, Woolly: 100
[10]; [26]
  Plant response rating, Cupgrass, Woolly: 10
[11]; [23]
  Plant response rating, Foxtail, Giant: 20
[11]; [24]
  Plant response rating, Foxtail, Giant: 10
[11]; [25]
  Plant response rating (0 to 100), Foxtail, Giant: 70
[11]; [26]
  Plant response rating, Foxtail, Giant: 20
[12]; [23]
  Plant response rating, Crabgrass: 100
[12]; [24]
  Plant response rating, Crabgrass: 100
[12]; [25]
  Plant response rating (0 to 100), Crabgrass: 100
[12]; [26]
  Plant response rating, Crabgrass: 100
[13]; [23]
  Plant response rating, Johnsongrass: 0
[13]; [24]
  Plant response rating, Johnsongrass: 0
[13]; [25]
  Plant response rating (0 to 100), Johnsongrass: 90
[13]; [26]
  Plant response rating, Johnsongrass: 0
[14]; [23]
  Plant response rating, Goosegrass: 80
[14]; [24]
  Plant response rating, Goosegrass: 80
[14]; [25]
  Plant response rating (0 to 100), Goosegrass: 100
[14]; [26]
  Plant response rating, Goosegrass: 90
[15]; [23]
  Plant response rating, Cocklebur: 0
[15]; [24]
  Plant response rating, Cocklebur: 0
[15]; [25]
  Plant response rating (0 to 100), Cocklebur: 0
[15]; [26]
  Plant response rating, Cocklebur: 0
[16]; [23]
  Plant response rating, Pigweed: 90
[16]; [24]
  Plant response rating, Pigweed: 0
[16]; [25]
  Plant response rating (0 to 100), Pigweed: 70
[16]; [26]
  Plant response rating, Pigweed: 20
[17]; [23]
  Plant response rating, Nutsedge: 0
[17]; [24]
  Plant response rating, Nutsedge: 0
[17]; [25]
  Plant response rating (0 to 100), Nutsedge: 90
[17]; [26]
  Plant response rating, Nutsedge: 0
[18]; [23]
  Plant response rating, Bermudagrass: 90
[18]; [24]
  Plant response rating, Bermudagrass: 90
[18]; [25]
  Plant response rating (0 to 100 where 0 is no effect and 100 is complete control), Bermudagrass: 100
[18]; [26]
  Plant response rating, Bermudagrass: 100
[19]; [23]
  Plant response rating, Lambsquarters: 100
[19]; [24]
  Plant response rating, Lambsquarters: 100
[19]; [25]
  Plant response rating (0 to 100), Lambsquarters: 100
[19]; [26]
  Plant response rating, Lambsquarters: 100
[20]
  Plant response rating, Sunflower: 0
[21]; [23]
  Plant response rating, Corn: 0
[21]; [24]
  Plant response rating, Corn: 0
[21]; [25]
  Plant response rating (0 to 100), Corn: 20
[21]; [26]
  Plant response rating, Corn: 0
[22]; [23]
  Plant response rating, Soybean: 0
[22]; [24]
  Plant response rating, Soybean: 0
[22]; [25]
  Plant response rating (0 to 100), Soybean: 0
[22]; [26]
  Plant response rating, Soybean: 0
